Like-named read-outs stand apart in the source and are kept apart here.
Key:
B-Raf kinase = molecular target: T1, B-Raf kinase (Homo sapiens, UniProt P15056); test: Biochemical Assay for B-Raf (coupled pyruvate kinase/lactate dehydrogenase assay)
T1 construct: GST (N); purchased Sigma

C-Raf kinase = molecular target: T2, C-Raf kinase (Homo sapiens, UniProt P04049, Y340D/Y341D); test: Biochemical Assay for C-Raf (coupled pyruvate kinase/lactate dehydrogenase assay)
T2 construct: C-Raf residues 306-end; Y340D, Y341D with N-; GST (N); purchased Eurofins

MiaPaca-2 cells = test: MiaPaca-2 Cell Proliferation Assay; assay type: cell-based; conditions: Homo sapiens, MIA PaCa-2
Description: MiaPaca-2 cells (catalog #CRL-1420) are obtained from the American Type Culture Collect (ATTC, Manassas, VA). Briefly, cells were grown in DMEM supplemented with 10% characterized fetal bovine serum (Invitrogen, Carlsbad, CA), 2.5% New Zealand sourced horse serum and 1% Penicillin/Streptomycin/L-Glutamine at 37° C., 5% CO2, and 95% humidity. Cells are expanded until reaching 70-95% confluency at which point they are sub-cultured or harvested for assay use. For assays completed in 96-well plates, a serial dilution of test compound is dispensed into a 96-well black clear bottom plate in triplicate. Three thousand cells are added per well in 200 μL complete growth medium in the 96-well plate. Plates are incubated for 67 to 72 h at 37° C., 5% CO2, and 95% humidity. At the end of the incubation, 40 μL of a […] solution of resazurin (Sigma, St. Louis, MO) in PBS is added to each well of the plate and plates are incubated for an additional 5 to 6 hours at 37° C., 5% CO2, and 95% humidity. For 384-well assays, a threefold, 8-point serial dilution of compound was spotted column wise into a 384 well black, clear bottom, tissue culture treated plate using the Beckman Coulter Echo 650. Likewise, a threefold, 8-point serial dilution of cobimetinib was spotted row wise into the 384 well black, clear bottom plate containing compound. DMSO concentration was constant across all wells at 0.4%. Seven hundred fifty cells are added per well in 50 μL complete growth medium in each 384-well plate. Plates are incubated for 67 to 72 h at 37° C., 5% CO2, and 95% humidity. At the end of the incubation, 10 μL of a 440 μM solution of resazurin (Sigma, St. Louis, MO) in PBS is added to each well of the plate and plates are incubated for an additional 4 to 6 h at 37° C., 5% CO2, and 95% humidity. Plates are read on a Synergy2 or equivalent reader (Biotek, Winooski VT) using an excitation of 540 nm and an emission of 600 nm. Data is analyzed using Prism software (Graphpad, San Diego, CA) to calculate IC50 values.

HCT-116 cells = test: HCT-116 Cell Proliferation Assay; assay type: cell-based; conditions: Homo sapiens
Description: HCT-116 cells (catalog #CCL-247) are obtained from the American Type Culture Collect (ATCC, Manassas, VA). Briefly, cells are grown in McCoy's 5A supplemented with 10% characterized fetal bovine serum (Invitrogen, Carlsbad, CA) and 1% Penicillin/Streptomycin/L-Glutamine at 37° C., 5% CO2, and 95% humidity. Cells are expanded until reaching 70-95% confluency at which point they are sub-cultured or harvested for assay use. A serial dilution of test compound is dispensed into a 384-well black clear bottom plate in triplicate. 375 cells are added per well in 50 μL complete growth medium in the 384-well plate. Plates are incubated for 67 to 72 h at 37° C., 5% CO2, and 95% humidity. At the end of the incubation, 40 μL of a […] solution of resazurin (Sigma, St. Louis, MO) in PBS is added to each well of the plate and plates are incubated for an additional 4 to 5 hours at 37° C., 5% CO2, and 95% humidity. Plates are read on a Synergy2 or equivalent reader (Biotek, Winooski, VT) using an excitation of 540 nm and an emission of 600 nm. Data is analyzed using Prism software (Graphpad, San Diego, CA) to calculate IC50 values.

HPAF-II cells = test: HPAF-II Cell Proliferation Assay; assay type: cell-based; conditions: Homo sapiens
Description: HPAF-II cells (catalog #CRL-1997) are obtained from the American Type Culture Collect (ATCC, Manassas, VA). Briefly, cells are grown in Minimum Essential Media supplemented with 10% characterized fetal bovine serum (Invitrogen, Carlsbad, CA) and 1% Penicillin/Streptomycin/L-Glutamine at 37° C., 5% CO2, and 95% humidity. Cells are expanded until reaching 70-95% confluency at which point they are sub-cultured or harvested for assay use. A serial dilution of test compound is dispensed into a 384-well black clear bottom plate in triplicate. 750 cells are added per well in 50 μL complete growth medium in the 384-well plate. Plates are incubated for 115 to 120 h at 37° C., 5% CO2, and 95% humidity. At the end of the incubation, 40 μL of a […] solution of resazurin (Sigma, St. Louis, MO) in PBS is added to each well of the plate and plates are incubated for an additional 18 to 24 h at 37° C., 5% CO2, and 95% humidity. Plates are read on a Synergy2 or equivalent reader (Biotek, Winooski, VT) using an excitation of 540 nm and an emission of 600 nm. Data is analyzed using Prism software (Graphpad, San Diego, CA) to calculate IC50 values.

Pa16c cells = test: Pa16c Cell Proliferation Assay; assay type: cell-based; conditions: Table 2, inhibition of cell proliferation
Description: Pa16c cells are obtained from Dr. Channing Der, University of North Carolina at Chapel Hill. Briefly, cells are grown in Dulbecco's Modified Eagle Medium supplemented with 10% characterized fetal bovine serum (Invitrogen, Carlsbad, CA) and 1% Penicillin/Streptomycin/L-Glutamine at 37° C., 5% CO2, and 95% humidity. Cells are expanded until reaching 70-95% confluency at which point they are sub-cultured or harvested for assay use. A serial dilution of test compound is dispensed into a 384-well black clear bottom plate in triplicate. 750 cells are added per well in 50 μL complete growth medium in the 384-well plate. Plates are incubated for 67 to 72 hours at 37° C., 5% CO2, and 95% humidity. At the end of the incubation, 40 μL of a […] solution of resazurin (Sigma, St. Louis, MO) in PBS is added to each well of the plate and plates are incubated for an additional 18 to 24 hours at 37° C., 5% CO2, and 95% humidity. Plates are read on a Synergy2 or equivalent reader (Biotek, Winooski, VT) using an excitation of 540 nm and an emission of 600 nm. Data is analyzed using Prism software (Graphpad, San Diego, CA) to calculate IC50 values.

tubulin = test: Cellular Tubulin Polymerization Assay (HCT-116 cells); assay type: cell-based; conditions: Table 3, HCT-116 cells; read-out: Tubulin Cellular IC50
[1] = Table 1, inhibition of biochemical activity, read-out: BRAF
[2] = Table 1, inhibition of biochemical activity, read-out: CRAF
[3] = Table 2, inhibition of cell proliferation, read-out: MiaPaca-2
[4] = Table 3, read-out: MiaPaca-2 IC50
[5] = HCT-116, Table 3, read-out: HCT-116 IC50
[6] = Table 2, inhibition of cell proliferation, read-out: HCT-116
[7] = HPAF-II, Table 3, read-out: HPAF-II IC50
[8] = Table 2, inhibition of cell proliferation, read-out: HPAF-II

Measured: IC50

T1 sequence (P15056 416-766): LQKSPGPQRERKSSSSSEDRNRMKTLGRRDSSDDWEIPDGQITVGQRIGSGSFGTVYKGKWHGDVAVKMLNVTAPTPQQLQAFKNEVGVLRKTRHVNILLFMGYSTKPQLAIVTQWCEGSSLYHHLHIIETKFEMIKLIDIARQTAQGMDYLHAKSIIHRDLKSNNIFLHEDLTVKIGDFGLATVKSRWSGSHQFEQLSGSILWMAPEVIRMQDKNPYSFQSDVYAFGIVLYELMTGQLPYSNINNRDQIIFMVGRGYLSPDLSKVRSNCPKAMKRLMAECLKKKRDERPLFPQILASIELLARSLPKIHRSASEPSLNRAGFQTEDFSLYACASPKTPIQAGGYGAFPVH
T2 sequence (P04049 307-648 Y340D/Y341D): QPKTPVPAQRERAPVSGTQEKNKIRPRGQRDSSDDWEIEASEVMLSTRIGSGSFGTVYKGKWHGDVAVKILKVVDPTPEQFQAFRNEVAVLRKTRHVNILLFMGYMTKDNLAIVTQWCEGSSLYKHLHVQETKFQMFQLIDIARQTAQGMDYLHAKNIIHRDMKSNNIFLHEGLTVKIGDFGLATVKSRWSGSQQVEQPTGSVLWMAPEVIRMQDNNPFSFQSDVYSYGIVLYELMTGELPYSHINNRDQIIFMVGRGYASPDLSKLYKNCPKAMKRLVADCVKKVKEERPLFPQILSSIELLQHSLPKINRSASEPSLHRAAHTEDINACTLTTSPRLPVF

CC(=O)Nc1cc(-c2cc(-c3cc(NC(=O)Nc4ccc(C(F)(F)F)nc4)ccc3C)ccn2)ccn1 [Example 4]
100 to 500 nM: HPAF-II cells; [7] | HPAF-II cells; [8]
< 100 nM: B-Raf kinase; [1] | B-Raf kinase; Table 3, read-out: BRAF IC50 | C-Raf kinase; [2] | C-Raf kinase; Table 3, read-out: CRAF IC50 | MiaPaca-2 cells; [3] | MiaPaca-2 cells; [4] | HCT-116 cells; [5] | HCT-116 cells; [6] | Pa16c cells | tubulin

CC(=O)Nc1cc(-c2cc(-c3cc(NC(=O)Nc4ccc(C(F)(F)F)nc4)ccc3C)cn(C)c2=O)ccn1 [Example 9]
500 to 1000 nM: HPAF-II cells; [7] | HPAF-II cells; [8]
< 100 nM: B-Raf kinase; [1] | B-Raf kinase; Table 3, read-out: BRAF IC50 | C-Raf kinase; [2] | C-Raf kinase; Table 3, read-out: CRAF IC50 | MiaPaca-2 cells; [3] | MiaPaca-2 cells; [4] | HCT-116 cells; [5] | HCT-116 cells; [6] | tubulin
100 to 500 nM: Pa16c cells

CNc1cc(-c2cc(-c3cc(NC(=O)Nc4ccc(C(F)(F)F)nc4)ccc3C)cc(OCCO)n2)ccn1 [Example 17]
< 100 nM: C-Raf kinase; [2] | MiaPaca-2 cells; [3] | MiaPaca-2 cells; [4] | HCT-116 cells; [5] | HCT-116 cells; [6] | Pa16c cells
500 to 1000 nM: HPAF-II cells; [7] | HPAF-II cells; [8]
100 to 500 nM: B-Raf kinase; [1] | B-Raf kinase; Table 3, read-out: BRAF IC50 | C-Raf kinase; Table 3, read-out: CRAF IC50

Cc1ccc(NC(=O)Nc2cc(C(F)(F)F)cnn2)cc1-c1ccnc(-c2ccnc(NC(=O)C3CC3)c2)c1 [Example 22, N-(4-(2-methyl-5-(3-(5-(trifluoromethyl)pyridazin-3-yl)ureido)phenyl)-[2,4′-bipyridin]-2′-yl)cyclopropanecarboxamide]
1000 to 10000 nM: HPAF-II cells; [8] | Pa16c cells
< 100 nM: B-Raf kinase; [1] | C-Raf kinase; [2]
500 to 1000 nM: MiaPaca-2 cells; [3] | HCT-116 cells; [6]

Cc1ccc(NC(=O)Nc2ccc(C(F)(F)F)nc2)cc1-c1cc(N2CCOCC2)nc(N2CCC(O)CC2)n1 [Example 34]
< 100 nM: C-Raf kinase; [2] | MiaPaca-2 cells; [3] | MiaPaca-2 cells; [4] | HCT-116 cells; [5] | HCT-116 cells; [6] | tubulin
100 to 500 nM: B-Raf kinase; [1] | B-Raf kinase; Table 3, read-out: BRAF IC50 | C-Raf kinase; Table 3, read-out: CRAF IC50 | HPAF-II cells; [7] | HPAF-II cells; [8]
500 to 1000 nM: Pa16c cells

Cc1ccc(NC(=O)Nc2ccc(C(F)(F)F)nc2)cc1-c1cc(OC[C@H](C)O)nc(N2CCOCC2)c1 [Example 39]
< 100 nM: C-Raf kinase; [2] | C-Raf kinase; Table 3, read-out: CRAF IC50 | MiaPaca-2 cells; [3] | MiaPaca-2 cells; [4] | HCT-116 cells; [5] | HCT-116 cells; [6] | HPAF-II cells; [7] | HPAF-II cells; [8] | tubulin
100 to 500 nM: B-Raf kinase; [1] | B-Raf kinase; Table 3, read-out: BRAF IC50 | Pa16c cells

Cc1ccc(NC(=O)Nc2ccc(C(F)(F)F)nc2)cc1-c1cc(OC[C@@H](C)O)nc(N2CCOCC2)c1 [Example 40]
100 to 500 nM: B-Raf kinase; Table 3, read-out: BRAF IC50 | Pa16c cells
< 100 nM: B-Raf kinase; [1] | C-Raf kinase; [2] | C-Raf kinase; Table 3, read-out: CRAF IC50 | MiaPaca-2 cells; [3] | MiaPaca-2 cells; [4] | HCT-116 cells; [5] | HCT-116 cells; [6] | HPAF-II cells; [7] | HPAF-II cells; [8] | tubulin

From patent publication US20260176279A1, “DUAL RAF AND TUBULIN INHIBITORS AND METHODS OF USE THEREOF” (Deciphera Pharmaceuticals, LLC, priority 2023, published 2026)
